Assay results as given in publication PMC12320299 (Chemical Science, 2025).

Tested on: SW480 cancer cells
Experiment: Proteome profiling of compound-treated SW480 cancer cells (24 h, approx. IC50, CYT and NE fractions)
Type: cell-based, human
Method: To gain insight into potential modes of action and derive structure–activity relationships on a molecular level, proteomic profiling experiments were carried out based on label-free quantification (LFQ) by nano-liquid chromatography tandem mass spectrometry (nLC-MS/MS). […] Six replicates were used per condition. The perturbations were evaluated at subcellular resolution by fractionating cells into cytoplasmic (CYT) and nuclear (NE) protein fractions. Those have been separately proteolytically digested and analysed (Fig. 3A). The perturbations with the 3-Et-NQ and 3-Morph-NQ complexes were performed against their respective solvent-treated controls (CON), yielding a total of 72 samples. […] Statistical significance of individual protein regulations was calculated by multiple testing-corrected P-values based on 5% false discovery rate (FDR = 0.05 and S0 = 0.1).
The position of each group represents the summed fold-changes of the individual proteins in the group according to the subcellular space, i.e., CYT and NE fractions, while the size represents the number of proteins in each group. […]
Proteome profiling of compound-treated SW480 cancer cells […]
cells per well and left to adhere in complete cell culture medium. After 24 h, the medium was exchanged with fresh complete medium (DMSO mock control) or fresh medium containing […]
solution in DMSO, respectively) and incubated for another 24 h. Each condition was carried out in hexuplicates. The cells were processed according to a nucleocytoplasmic fractionation protocol as previously described.3 All steps were performed on ice. The medium was removed, and the cells were washed twice with 1×PBS (phosphate buffered saline, 3 mL). Then, PBS was thoroughly removed. Isotonic lysis buffer (10 mM HEPES, 10 mM NaCl, 3.5 mM MgCl2, 1 mM EGTA, 0.25 M Sucrose, 0.5% Triton X-100) containing protease inhibitors (1% PMSF, Sigma, and 1% protease and phosphatase inhibitor cocktail, Roche) was added to the flasks, the cells were scraped off and transferred into labelled 15 mL Falcon tubes. The cellular membrane was ruptured using shear stress by pressing the cell suspension through a syringe 9–12 times. Membrane rupture with intact nuclei was monitored under a microscope. After centrifugation (960 g, 5 min), the supernatant containing the cytoplasmic (CYT) proteins was transferred into new tubes containing ice-cold ethanol (1 : 5, HPLC grade) and precipitated […]
overnight at –20 °C. The pellet containing the nuclei was incubated with a hypertonic solution (10 mM Tris-HCl, 1 mM EDTA and 0.5 M NaCl) and subsequently diluted 1:10 with NP-40 buffer (10 mm Tris-HCl, 1 mm EDTA and 0.5% Triton X-100) containing protease inhibitors (1% PMSF, Sigma, and 1% protease and phosphatase inhibitor cocktail, Roche). After centrifugation (960 g, 5 min), the soluble nuclear (NE) proteins were also transferred into new tubes containing ice-cold ethanol (1 : 5, HPLC grade) and precipitated overnight at –20 °C.
The precipitated proteins were finally pelleted by centrifugation (5000 g, 30 min, 4 °C), the solution was decanted and the pellet dried under vacuum.

[1] = cytoplasmic fraction, FDR = 0.05, S0 = 0.1
[2] = nuclear fraction, FDR = 0.05, S0 = 0.1

Cc1ccc(C(C)C)cc1.O=C1C(CN2CCOCC2)=C2[O][Ru][O]C2(n2cccn2)c2ccccc21 (centres unmarked) [Compound 1b]
GO BP Chromatin organization, summed fold-changes (NE fraction): 28.0 | GO BP DNA damage response, summed fold-changes (NE fraction): 22.6 | GO BP DNA repair, summed fold-changes (NE fraction): 35.2 | GO BP DNA replication, summed fold-changes (NE fraction): 6.1 | GO BP Intracellular protein transport, summed fold-changes (NE fraction): -31.2 | GO BP Mitotic cytokinesis, summed fold-changes (NE fraction): 4.0 | GO BP Negative regulation of DNA-templated transcription, summed fold-changes (NE fraction): 65.6 | GO BP Nucleocytoplasmic transport, summed fold-changes (NE fraction): 26.1 | GO BP Positive regulation of DNA-templated transcription, summed fold-changes (NE fraction): 71.8 | GO BP Proteasome-mediated ubiquitin-dependent protein catabolic process, summed fold-changes (NE fraction): 26.0 | GO BP Protein folding, summed fold-changes (NE fraction): -27.7 | GO BP Protein stabilization, summed fold-changes (NE fraction): -4.7 | GO BP Protein transport, summed fold-changes (NE fraction): -9.8 | GO BP Purine nucleotide biosynthetic process, summed fold-changes (NE fraction): -7.4 | GO BP RNA splicing, summed fold-changes (NE fraction): 29.0 | GO BP Regulation of apoptotic process, summed fold-changes (NE fraction): 4.6 | GO BP Regulation of cell fate specification, summed fold-changes (NE fraction): 10.8 | GO BP Regulation of double-strand break repair, summed fold-changes (NE fraction): 14.0 | GO BP Regulation of stem cell differentiation, summed fold-changes (NE fraction): 12.8 | GO BP Response to oxidative stress, summed fold-changes (NE fraction): -22.0 | GO BP Ribosomal small subunit biogenesis, summed fold-changes (NE fraction): 25.3 | GO BP Ribosome biogenesis, summed fold-changes (NE fraction): 6.9 | GO BP Ubiquitin-dependent protein catabolic process, summed fold-changes (NE fraction): 4.9 | GO BP Vesicle-mediated transport, summed fold-changes (NE fraction): -26.9 | GO BP mRNA processing, summed fold-changes (NE fraction): 25.4 | GO BP mRNA splicing, via spliceosome, summed fold-changes (NE fraction): 37.9 | GO BP mRNA transport, summed fold-changes (NE fraction): 17.5 | GO BP rRNA processing, summed fold-changes (NE fraction): 40.4 | GO CC Azurophil granule lumen, summed fold-changes (NE fraction): -24.9 | GO CC Chromatin, summed fold-changes (NE fraction): 92.4 | GO CC Chromosome, centromeric region, summed fold-changes (NE fraction): 9.3 | GO CC Chromosome, summed fold-changes (NE fraction): 28.8 | GO CC Chromosome, telomeric region, summed fold-changes (NE fraction): 30.4 | GO CC Condensin complex, summed fold-changes (NE fraction): 1.4 | GO CC Cytoskeleton, summed fold-changes (NE fraction): -23.7 | GO CC Endosome, summed fold-changes (NE fraction): -21.5 | GO CC Extracellular exosome, summed fold-changes (NE fraction): -325.4 | GO CC Fibrillar center, summed fold-changes (NE fraction): 22.1 | GO CC Ficolin-1-rich granule lumen, summed fold-changes (NE fraction): -29.3 | GO CC Focal adhesion, summed fold-changes (NE fraction): -55.9 | GO CC Intracellular membrane-bounded organelle, summed fold-changes (NE fraction): -21.7 | GO CC Kinetochore, summed fold-changes (NE fraction): 23.6 | GO CC Lipid droplet, summed fold-changes (NE fraction): -14.4 | GO CC Lysosome, summed fold-changes (NE fraction): -44.7 | GO CC Microtubule cytoskeleton, summed fold-changes (NE fraction): -18.2 | GO CC Mitochondrion, summed fold-changes (NE fraction): -134.2 | GO CC Nuclear envelope, summed fold-changes (NE fraction): 21.5 | GO CC Nuclear speck, summed fold-changes (NE fraction): 55.6 | GO CC Nucleolus, summed fold-changes (NE fraction): 104.6 | GO CC Nucleoplasm, summed fold-changes (NE fraction): 270.4 | GO CC Nucleus, summed fold-changes (NE fraction): 135.2 | GO CC Proteasome complex, summed fold-changes (NE fraction): 12.2 | GO CC Protein-containing complex, summed fold-changes (NE fraction): -21.9 | GO CC Ribonucleoprotein complex, summed fold-changes (NE fraction): 3.5 | GO CC SCAR complex, summed fold-changes (NE fraction): -6.0 | GO CC Small-subunit processome, summed fold-changes (NE fraction): 29.5 | GO CC Spliceosomal complex, summed fold-changes (NE fraction): 22.0 | GO CC Transcription repressor complex, summed fold-changes (NE fraction): 12.8 | GO CC Vesicle, summed fold-changes (NE fraction): -24.1 | KEGG pathway ATP-dependent chromatin remodeling, summed fold-changes (NE fraction): 35.8 | KEGG pathway Apoptosis, summed fold-changes (NE fraction): -20.6 | KEGG pathway Basal transcription factors, summed fold-changes (NE fraction): 10.6 | KEGG pathway Biosynthesis of amino acids, summed fold-changes (NE fraction): -32.4 | KEGG pathway Biosynthesis of cofactors, summed fold-changes (NE fraction): -31.7 | KEGG pathway Cell cycle, summed fold-changes (NE fraction): 19.2 | KEGG pathway Nucleocytoplasmic transport, summed fold-changes (NE fraction): 34.5 | KEGG pathway Polycomb repressive complex, summed fold-changes (NE fraction): 17.0 | KEGG pathway Proteasome, summed fold-changes (NE fraction): 16.8 | KEGG pathway Ribosome biogenesis in eukaryotes, summed fold-changes (NE fraction): 28.9 | N° proteins down-regulated, CYT [1]: 8 | N° proteins upregulated, CYT [1]: 8 | N° proteins down-regulated, NE [2]: 772 | N° proteins upregulated, NE [2]: 710 | regulated proteins in CYT (up- and down-regulated): 16
